Measurements as given in publication PMC5498548.
Values joined by “and” are separate entries in the source; they are usually repeats but may differ in a detail not shown here. Equal values may be shown once. Where a name gives a salt, the structure may show the parent alone. Read-outs that look alike come from different tables or passages of the source.

Molecular target: IdeR (Mycobacterium tuberculosis, UniProt P9WMH1)
Assay: biochemical
Conditions: EMSA
[1] = 0.35 µg IdeR, 0.8 picomoles labeled DNA, 200 µM NiSO4, inhibitor 0.4-100 µg/ml
[2] = same values given in µM, read-out: IC50
[3] = 0.35 µg IdeR, 0.8 picomoles labeled DNA, 200 µM NiSO4, inhibitor 0.4-100 µg/ml, read-out: IC50 (µg/ml) (converted)

IdeR, sequence (P9WMH1 whole entry, looked up): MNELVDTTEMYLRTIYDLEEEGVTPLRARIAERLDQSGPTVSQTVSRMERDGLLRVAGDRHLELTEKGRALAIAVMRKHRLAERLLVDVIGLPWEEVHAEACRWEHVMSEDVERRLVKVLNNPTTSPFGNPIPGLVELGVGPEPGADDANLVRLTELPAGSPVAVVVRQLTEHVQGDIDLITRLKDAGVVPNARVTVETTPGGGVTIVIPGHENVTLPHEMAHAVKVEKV

Row | Compound | IC50 [1] | IC50 [2] [µM] | IC50 [3]
1 | O=S(=O)([O-])c1cc(N=Nc2c(O)ccc3ccccc23)c2c(S(=O)(=O)[O-])cccc2c1.[Na+].[Na+] [IS-9, 8-[-(2-hydroxynaphthalen-1-yl)diazenyl]naphthalene-1,6-disulfonic acid, disodium salt] | 13.9 ± 7.37 µg/mL | 27.6 | 
2 | O=S(=O)(Nc1c(Cl)c(Cl)c(Cl)c(Cl)c1NS(=O)(=O)c1ccccc1)c1ccccc1 [IS-70, N,N-(3,4,5,6-tetrachlorobenzene-1,2-diyl) dibenzenesulfonamide] | 46.44 ± 1.486 µg/mL | 88.3 | 
3 | 5[phenylimino)methyl]benzene-1,2,3 triol [IS-51] | 16.5 µg/mL and 16.52 ± 1.72 µg/mL | 72 | 
4 | O=S(=O)(O)c1ccc2c(N=Nc3cccc4ccccc34)c(O)c(S(=O)(=O)O)cc2c1 [IS-45, 2,7-naphthalenedisulfonic acid, 3-hydroxy-4-(1-napthalenylazo)] | 20.19 ± 1.74 µg/mL | 40 | 
5 | O=S(=O)(O)c1cccc2c(O)c(N=Nc3cccc4ccccc34)ccc12 [IS-55, 1-napthalenesulfonic acid,5-hydroxy-6-(1-naphthalenylazo)] | 6.6 ± 1.95 µg/mL | 16.4 | 
6 | Nc1ccc(N=Nc2ccc(N=Nc3ccc(N=Nc4cc(S(=O)(=O)O)c5ccccc5c4O)c4ccc(S(=O)(=O)O)cc34)c3ccc(S(=O)(=O)O)cc23)cc1 [IS-8, 1-Naphthalenesulfonic acid, 3-[[4-[[4-[(4-aminophenyl)azo]-6-sulfo-1-naphthalenyl]azo]-6-sulfo-1-naphthalenyl]azo]-4-hydroxy-,trisodium salt] |  | 0.75 | 0.813 µM and 0.822 µM
7 | O=C(NN=c1ccc([N+](=O)[O-])c[nH]1)Nc1ccc(-c2ccccc2)cc1 [Compound I-89, N-(biphenyl-4-yl)-2-(5-nitropyridin-2(1H)-ylidene)hydrazinecarboxamide] |  | 83.4 | 83.3 µM
8 | O=S(=O)(O)c1ccc(O)c(/N=N/c2ccc(O)cc2O)c1 [IS-2, Benzensulfonic acid, 3-[(2,4-dihydroxyphenyl)azo]-4-hydroxy] |  | 16.3 | 17.4 µM and 17.7 µM
9 | COc1ccccc1N=Nc1cc(S(=O)(=O)O)c2ccccc2c1O [IS-59] | 18.64 ± 1.532 µg/mL | 48.9 | 
10 | Nc1ccc(-c2nc3ccccc3s2)cc1S(=O)(=O)O [IS-32, 2-Amino-5-(1,3-benzothiazol-2-yl) benzenesulfonic acid] |  | 64.8 | 68.3 µM
11 | Oc1ccccc1C=Nc1ccccc1N=Cc1ccccc1O [IS-47] | 84 ± 1.2 µg/mL | 266 | 
12 | Cc1ccccc1N=Nc1ccc2c(S(=O)(=O)[O-])cccc2c1O.[Na+] [Compound I-90, 1-Naphthalenesulfonic acid,5-hydroxy-6-[(2-methylphenyl)azo]-monosodium salt] | 45.27 ± 1.3 µg/mL | 124 | 
13 | NC(Cc1c[nH]c2cc(OCc3ccccc3)ccc12)C(=O)O (stereo not shown) [Compound I-92, 2-amino-3-[6-(benzyloxy)-1H-indol-3-yl]propanoic acid] |  | 189 | 189 µM
14 | O=S(=O)(O)c1cccc2cccc(N=Nc3c(O)ccc4ccccc34)c12 [IS-6, 8-[-(2-hydroxynaphthalen-1-yl)diazenyl]naphthalene-1-sulfonic acid] |  | 54 | 57.2 µM
15 | O=S(=O)(Nc1ccc(Cl)cc1NS(=O)(=O)c1ccccc1)c1ccccc1 [Compound I-85, N,N`-(4-chlorobenzene-1,2-diyl)dibenzenesulfonamide] |  | 67.1 | 67.2 µM
16 | O=C(NN1C(=O)C=C(O)C1=Cc1ccccc1)c1ccccc1 [Compound I-112, N-[2-benzylidene-3-hydroxy-5-oxo-2,5-dihydro-1H-pyrrol-1-yl]benzamide] |  | 170 | 170 µM
17 | Cc1c2ccccc2nc(C[S+]([O-])c2ccccc2)[n+]1[O-] (stereo not shown) [Compound I-93, 4-methyl-2-[(phenylsulfinyl)methyl]quinazoline 3-oxide] |  | 182 | 181 µM
